Measurements: PubChem BioAssay AID248 (DTP/NCI, 2004)
Where “and” joins values, the source holds several entries; their conditions need not be identical. Equal values may be shown once. Inconclusive results and toxic doses are left out. Cut-off read from the data, not from the text of the source: active = T/C of 150% or more; inactive = T/C below 125%.

System: L1210 leukemia ip in BDF1 mice, survival T/C
Experiment: NCI In Vivo Anticancer Drug Screen. Data for tumor model L1210 Leukemia (intraperitoneal) in B6D2F1 (BDF1) mice
Conditions: endpoint: mean survival time, higher = longer survival
Summary of the method: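 Survival endpoint. Drug-treated group vs vehicle group, expressed as T divided by C. Tumor passaged by transplantation.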

[1] = dose: 50.0 mg/kg/injection, schedule: Q01DX009 (ip), vehicle: Klucel (hydroxypropylcellulose) (HPC)
[2] = dose: 100.0 mg/kg/injection, schedule: Q01DX009 (ip), vehicle: Klucel (hydroxypropylcellulose) (HPC)
[3] = dose: 100.0 mg/kg/injection, schedule: Q04DX002 (ip), vehicle: Klucel (hydroxypropylcellulose) (HPC)
[4] = dose: 200.0 mg/kg/injection, schedule: Q01DX009 (ip), vehicle: Klucel (hydroxypropylcellulose) (HPC)
[5] = dose: 200.0 mg/kg/injection, schedule: Q04DX002 (ip), vehicle: Klucel (hydroxypropylcellulose) (HPC)
[6] = dose: 400.0 mg/kg/injection, schedule: Q04DX002 (ip), vehicle: Klucel (hydroxypropylcellulose) (HPC)
[7] = dose: 100.0 mg/kg/injection, schedule: Q01DX009 (ip), vehicle: saline with Tween-80
[8] = dose: 100.0 mg/kg/injection, schedule: Q04DX002 (ip), vehicle: saline with Tween-80
[9] = dose: 100.0 mg/kg/injection, schedule: Q04DX003 (ip), vehicle: saline with Tween-80
[10] = dose: 200.0 mg/kg/injection, schedule: Q01DX009 (ip), vehicle: saline with Tween-80
[11] = dose: 200.0 mg/kg/injection, schedule: Q04DX002 (ip), vehicle: saline with Tween-80
[12] = dose: 200.0 mg/kg/injection, schedule: Q04DX003 (ip), vehicle: saline with Tween-80
[13] = dose: 400.0 mg/kg/injection, schedule: Q01DX009 (ip), vehicle: saline with Tween-80
[14] = dose: 400.0 mg/kg/injection, schedule: Q04DX002 (ip), vehicle: saline with Tween-80
[15] = dose: 400.0 mg/kg/injection, schedule: Q04DX003 (ip), vehicle: saline with Tween-80
[16] = dose: 100.0 mg/kg/injection, schedule: Q01DX001 (ip), vehicle: saline
[17] = dose: 200.0 mg/kg/injection, schedule: Q01DX001 (ip), vehicle: saline
[18] = dose: 400.0 mg/kg/injection, schedule: Q01DX001 (ip), vehicle: saline
[19] = dose: 100.0 mg/kg/injection, schedule: Q04DX003 (ip), vehicle: Klucel (hydroxypropylcellulose) (HPC)
[20] = dose: 200.0 mg/kg/injection, schedule: Q04DX003 (ip), vehicle: Klucel (hydroxypropylcellulose) (HPC)
[21] = dose: 400.0 mg/kg/injection, schedule: Q04DX003 (ip), vehicle: Klucel (hydroxypropylcellulose) (HPC)

Measured: T/C

CC(=O)OCCOc1ccc(C(C)(C)C)cc1
inactive: [1] 100 % of control | [2] 86 % of control and 92 % of control | [3] 98 % of control | [4] 111 % of control | [5] 102 % of control | dose: 225.0 mg/kg/injection, schedule: Q01DX Z (ip), vehicle: carboxymethylcellulose (CMC) 95 % of control | [6] 115 % of control | dose: 450.0 mg/kg/injection, schedule: Q01DX Z (ip), vehicle: carboxymethylcellulose (CMC) 102 % of control

O=C(NC(=S)Nc1cc(Cl)ccc1Cl)c1ccc(Cl)cc1Cl
inactive: dose: 100.0 mg/kg/injection, schedule: Q01DX001 (ip), vehicle: saline with Tween-80 92 % of control | [7] 94 % of control and 97 % of control | [8] 87 % of control and 90 % of control | [9] 97 % of control | dose: 200.0 mg/kg/injection, schedule: Q01DX001 (ip), vehicle: saline with Tween-80 94 % of control | [10] 93 % of control and 97 % of control | [11] 97 % of control and 87 % of control | [12] 92 % of control | dose: 400.0 mg/kg/injection, schedule: Q01DX001 (ip), vehicle: saline with Tween-80 94 % of control | [13] 103 % of control and 105 % of control | [14] 93 % of control and 101 % of control | [15] 95 % of control

N#CCc1[nH]cnc1C#N
inactive: dose: 100.0 mg/kg/injection, schedule: Q04DX003 (ip), vehicle: water 100 % of control and 111 % of control and 115 % of control | dose: 200.0 mg/kg/injection, schedule: Q04DX003 (ip), vehicle: water 95 % of control and 115 % of control | dose: 300.0 mg/kg/injection, schedule: Q04DX003 (ip), vehicle: water 113 % of control | dose: 400.0 mg/kg/injection, schedule: Q04DX003 (ip), vehicle: water 100 % of control (2×) and 122 % of control

CC1CCC(NCCOC(=O)c2ccc(N)cc2)CC1 (configuration not stated)
inactive: dose: 75.0 mg/kg/injection, schedule: Q01DX001 (ip), vehicle: other 94 % of control | dose: 150.0 mg/kg/injection, schedule: Q01DX001 (ip), vehicle: other 108 % of control

CC(C)(C)COC(=O)C(C)(C)C
inactive: [16] 117 % of control | [17] 112 % of control | [18] 102 % of control

c1ccc(N/N=C(/C[n+]2cc3ccccc3c3ccccc32)c2ccccc2)cc1
inactive: dose: 12.5 mg/kg/injection, schedule: Q01DX009 (ip), vehicle: Klucel (hydroxypropylcellulose) (HPC) 100 % of control | dose: 25.0 mg/kg/injection, schedule: Q01DX009 (ip), vehicle: Klucel (hydroxypropylcellulose) (HPC) 89 % of control | [1] 102 % of control | [2] 100 % of control

CN(C)c1ccc(-c2cc(NS(=O)(=O)c3ccccc3)ccc2NS(=O)(=O)c2ccccc2)cc1
inactive: dose: 100.0 mg/kg/injection, schedule: Q01DX001 (ip), vehicle: Klucel (hydroxypropylcellulose) (HPC) 96 % of control | dose: 200.0 mg/kg/injection, schedule: Q01DX001 (ip), vehicle: Klucel (hydroxypropylcellulose) (HPC) 94 % of control | dose: 400.0 mg/kg/injection, schedule: Q01DX001 (ip), vehicle: Klucel (hydroxypropylcellulose) (HPC) 96 % of control

COc1ccc(C(=O)C(C)CC(=O)O)cc1OC (configuration not stated)
inactive: dose: 75.0 mg/kg/injection, schedule: Q01DX009 (ip), vehicle: Klucel (hydroxypropylcellulose) (HPC) 102 % of control | dose: 150.0 mg/kg/injection, schedule: Q01DX009 (ip), vehicle: Klucel (hydroxypropylcellulose) (HPC) 94 % of control | dose: 300.0 mg/kg/injection, schedule: Q01DX009 (ip), vehicle: Klucel (hydroxypropylcellulose) (HPC) 91 % of control

COc1cc2ccnc(/C=N\NC(N)=S)c2cc1OC
inactive: dose: 50.0 mg/kg/injection, schedule: Q01DX001 (ip), vehicle: saline 93 % of control | [16] 98 % of control | [17] 93 % of control

Clc1ccc(/C=N/Nc2c3ccccc3nc3ccccc23)c(Cl)c1
inactive: [16] 92 % of control | [17] 97 % of control | [18] 100 % of control

O=C(Nc1ccc([N+](=O)[O-])cc1)Nc1ccc([N+](=O)[O-])cc1
inactive: [2] 93 % of control | dose: 100.0 mg/kg/injection, schedule: Q01DX009 (ip), vehicle: saline sonified 109 % of control | [7] 109 % of control | [3] 101 % of control | [19] 104 % of control | dose: 100.0 mg/kg/injection, schedule: Q04DX003 (ip), vehicle: saline sonified 96 % of control | [9] 100 % of control | [4] 94 % of control | dose: 200.0 mg/kg/injection, schedule: Q01DX009 (ip), vehicle: saline sonified 110 % of control | [10] 90 % of control | [5] 90 % of control | [20] 104 % of control | dose: 200.0 mg/kg/injection, schedule: Q04DX003 (ip), vehicle: saline sonified 91 % of control | [12] 102 % of control | dose: 400.0 mg/kg/injection, schedule: Q01DX009 (ip), vehicle: Klucel (hydroxypropylcellulose) (HPC) 88 % of control | dose: 400.0 mg/kg/injection, schedule: Q01DX009 (ip), vehicle: saline sonified 98 % of control | [13] 86 % of control | [6] 97 % of control | [21] 98 % of control | dose: 400.0 mg/kg/injection, schedule: Q04DX003 (ip), vehicle: saline sonified 93 % of control | [15] 97 % of control

O=c1nc(-c2ccccc2)c(-c2ccccc2)n[nH]1
inactive: dose: 50.0 mg/kg/injection, schedule: Q01DX009 (ip), vehicle: saline with Tween-80 91 % of control | [7] 98 % of control | [19] 107 % of control | [10] 98 % of control | [20] 100 % of control | [21] 102 % of control

NC(CCS)C(=O)O (configuration not stated)
inactive: dose: 100.0 mg/kg/injection, schedule: Q04DX002 (ip), vehicle: saline 107 % of control | dose: 200.0 mg/kg/injection, schedule: Q04DX002 (ip), vehicle: saline 110 % of control | dose: 400.0 mg/kg/injection, schedule: Q04DX002 (ip), vehicle: saline 96 % of control

Cc1ccc(S(=O)(=O)S/C(=N\c2ccccn2)Nc2ccccn2)cc1
inactive: dose: 100.0 mg/kg/injection, schedule: Q01DX001 (ip), vehicle: carboxymethylcellulose (CMC) 98 % of control | dose: 200.0 mg/kg/injection, schedule: Q01DX001 (ip), vehicle: carboxymethylcellulose (CMC) 93 % of control | dose: 400.0 mg/kg/injection, schedule: Q01DX001 (ip), vehicle: carboxymethylcellulose (CMC) 91 % of control

O=C(N/N=C\c1c(Cl)cccc1Cl)N/N=C/c1c(Cl)cccc1Cl
inactive: [8] 89 % of control | [11] 99 % of control | [14] 95 % of control

Cc1nc(OCc2ccccc2)c(C(=O)OCc2ccccc2)nc1C
inactive: [7] 103 % of control | [9] 101 % of control | [10] 97 % of control | [12] 102 % of control | [13] 101 % of control | [15] 98 % of control
